Source: patent US20240300945A1, “CLY SERIES COMPOUND, PREPARATION METHOD THEREFOR AND USE THEREOF IN PREPARATION OF DRUGS” (NANJING WELLBEST PHARMACEUTICAL CO., LTD, priority 2021, published 2024)
Marks after values point to notes of the source that are not given here.

Key:
[1] = tested on: rat hair loss model; assay: Rat hair loss (androgenic alopecia) model: hair length; format: in vivo, Wistar rats; conditions: for 15-day hair length / 30-day hair length / 45-day hair length / 60-day hair length: rat AGA model; for adverse reactions: rat hair loss model, external use and system application, 60 days
Text: (1) Compound CLY-1, CLY-2, CLY-3, CLY-4, CLY-5, CLY-8, CLY-11, CLY-19, CLY-36, CLY-39 tincture preparation method: 75% ethanol was mixed with appropriate amount of above compounds to prepare a tincture of different concentrations.
(2) Positive treatment drug: 5% minoxidil tincture (trade name: Mandi, Zhejiang Wanma Pharmaceutical Co., Ltd.).
(§1) Wistar rats were, according to weights, randomly divided into the negative control group (75% ethanol for external use), model group (75% ethanol for external use), positive control group (external 5% minoxidil tincture), CLY-1 external treatment group (external 5% CLY-1 tincture), CLY-2 external treatment group (external 5% CLY-2 tincture), CLY-3 external treatment group (external 5% CLY-3 tincture), CLY-4 external treatment group (external 5% CLY-4 tincture), and CLY-5 external treatment group (external 5% CLY-5 tincture) according to their body weight CLY-8 external treatment group (external 5% CLY-8 tincture), CLY-11 external treatment group (external 5% CLY-11 tincture), CLY-19 external treatment group (external 5% CLY-19 tincture), CLY-36 external treatment group (external 5% CLY-36 tincture), CLY-39 external treatment group (external 5% CLY-39 tincture), CLY-1 intravenous injection group (2 mg/kg·d), CLY-3 intravenous injection group (2 mg/kg·d), CLY-4 intravenous injection group (2 mg/kg·d) CLY-5 intravenous injection group (2 mg/kg·d), CLY-8 intravenous injection group (2 mg/kg·d), CLY-11 intravenous injection group (2 mg/kg·d), CLY-19 intravenous injection group (2 mg/kg·d), CLY-36 intravenous injection group (2 mg/kg·d), and CLY-39 intravenous injection group (2 mg/kg·d), with 10 rats in each group. Before the experiment, an area of 4 cm×5 cm was selected on each rat on the back of the neck to remove hair as the observation area. In addition to the negative control group, rats were subcutaneously injected with testosterone propionate injection [5 ml/(kg·d)] once a day for 60 days to establish the androgenic alopecia (AGA) model. […] At the same time, the drug was applied to the observation area on the back of the rats in the corresponding drug group at the rate of 2 mL/(one time), twice a day, at an interval of 8 hours; Intravenous administration once a day. The negative control group and the model control group were smeared with 75% ethanol solution, 2 mL/(one rat per time), twice a day, for 60 days.
Took 10 hairs from the observation area on the back of each rat every 15 days after administration, and measured the hair length with a vernier caliper. After 60 days of administration, the skin of the experimental observation area was taken for routine tissue dehydration, paraffin embedding, HE staining, and light microscopy to observe the histopathological changes of the rat skin hair follicles and sebaceous glands. Semi-quantitative analysis was performed for each group. The grading criteria are as follows: the normal structure of dermal tissue cells, subcutaneous hair follicles, and sebaceous glands is marked as […]: no hyperplasia of dermal tissue is found, the lesions of hair follicles and sebaceous glands are limited, and no inflammation is found under the skin is marked as “+”: no obvious hyperplasia of dermal tissue is found, and the follicles are obviously cystic. No obvious hyperplasia of sebaceous glands is found, and no inflammation is found under the skin is marked as “+”: the dermal tissue has segmental hyperplasia, which is not obvious, A small number of hair follicles have cystic changes, and the sebaceous glands have mild hyperplasia and hypertrophy. There is no obvious inflammation under the skin, which is marked as “++”: the dermal tissue cells of the skin have different degrees of segmental hyperplasia, and some hair follicles have cystic changes, showing uneven size of hair follicles, and no cells around. The sebaceous glands have hyperplasia, and the nuclei in the proliferative glands are few. […]

[2] = tested on: skin hair follicles and sebaceous glands of rats; assay: Rat hair loss model: histopathological grading of skin hair follicles and sebaceous glands; format: in vivo, Wistar rats; conditions: 60 days, 10 rats per group; for number of rats with hair follicle and sebaceous gland grade +++: grade +++ (most severe); for number of rats with hair follicle and sebaceous gland grade ±: grade ± (lesions limited); for number of rats with hair follicle and sebaceous gland grade −: grade − (normal structure)
Text: as §1
Took 10 hairs from the observation area on the back of each rat every 15 days after administration, and measured the hair length with a vernier caliper. After 60 days of administration, the skin of the experimental observation area was taken for routine tissue dehydration, paraffin embedding, HE staining, and light microscopy to observe the histopathological changes of the rat skin hair follicles and sebaceous glands. Semi-quantitative analysis was performed for each group. The grading criteria are as follows: the normal structure of dermal tissue cells, subcutaneous hair follicles, and sebaceous glands is marked as […]: no hyperplasia of dermal tissue is found, the lesions of hair follicles and sebaceous glands are limited, and no inflammation is found under the skin is marked as “+”: no obvious hyperplasia of dermal tissue is found, and the follicles are obviously cystic. No obvious hyperplasia of sebaceous glands is found, and no inflammation is found under the skin is marked as “+”: the dermal tissue has segmental hyperplasia, which is not obvious, A small number of hair follicles have cystic changes, and the sebaceous glands have mild hyperplasia and hypertrophy. There is no obvious inflammation under the skin, which is marked as “++”: the dermal tissue cells of the skin have different degrees of segmental hyperplasia, and some hair follicles have cystic changes, showing uneven size of hair follicles, and no cells around. The sebaceous glands have hyperplasia, and the nuclei in the proliferative glands are few. A few rats have mild inflammatory hyperplasia under the skin, which is marked as “+++”.

[3] = external 5% tincture twice a day
[4] = intravenous injection 2 mg/kg·d

Row | SMILES | 15-day hair length [1, 3] | 30-day hair length [1, 3] | 45-day hair length [1, 3] | 60-day hair length [1, 3] | 15-day hair length [1, 4] | 30-day hair length [1, 4] | 45-day hair length [1, 4] | 60-day hair length [1, 4] | adverse reactions [1] | number of rats with hair follicle and sebaceous gland grade +++ ([2]; external 5% tincture) | number of rats with hair follicle and sebaceous gland grade +++ ([2]; intravenous 2 mg/kg·d) | number of rats with hair follicle and sebaceous gland grade ++ ([2]; external 5% tincture) | number of rats with hair follicle and sebaceous gland grade ++ ([2]; intravenous 2 mg/kg·d) | number of rats with hair follicle and sebaceous gland grade + ([2]; external 5% tincture) | number of rats with hair follicle and sebaceous gland grade + ([2]; intravenous 2 mg/kg·d) | number of rats with hair follicle and sebaceous gland grade ± ([2]; external 5% tincture) | number of rats with hair follicle and sebaceous gland grade ± ([2]; intravenous 2 mg/kg·d) | number of rats with hair follicle and sebaceous gland grade − ([2]; external 5% tincture) | number of rats with hair follicle and sebaceous gland grade − ([2]; intravenous 2 mg/kg·d)
1 | O=C(c1ccc(-n2nnc3cccnc32)cc1)N(c1ncccc1Cl)C1CCCC(O)C1 (stereo not drawn) [CLY-4] | 7.2* mm | 8.3* mm | 12.26* mm | 16.1* mm | 7.1* mm | 8.6* mm | 13.5* mm | 16.3* mm | no obvious adverse reactions | 0 | 0 | 3 | 1 | 4 | 5 | 3 | 4 | 0 | 0
2 | COC1CCCC(N(C(=O)c2ccc(-n3nnc4cccnc43)cc2)c2ncccc2Cl)C1 (stereo not drawn) [CLY-5] | 9.2* mm | 10.2* mm | 15.5* mm | 18.9* mm | 7.8* mm | 9.3* mm | 13.7* mm | 16.4* mm | no obvious adverse reactions | 0 | 0 | 0 | 0 | 4 | 2 | 6 | 8 | 0 | 0
3 | O=C(c1ccc(-n2nnc3cccnc32)cc1)N(c1ncccc1Cl)[C@@H]1CCNC1 [CLY-8, (R)-4-(3H-[1,2,3]triazolo[4,5-b]pyridin-3-yl)-N-(3-chloropyridin-2-yl)-N-(pyrrolidin-3-yl)benzamide] | 9.3* mm | 10.3* mm | 15.7* mm | 19.2* mm | 7.3* mm | 9.5* mm | 13.8* mm | 17.8* mm | no obvious adverse reactions | 0 | 0 | 0 | 0 | 3 | 2 | 7 | 8 | 0 | 0
